Values joined by “and” are separate entries in the source; they are usually repeats but may differ in a detail not shown here. Equal entries are not always repeated.
T1: hMAGL (Homo sapiens, UniProt Q99685)
T1 construct: expressed in transfected cells; host or cells: HEK
T1 sequence (Q99685 1-303): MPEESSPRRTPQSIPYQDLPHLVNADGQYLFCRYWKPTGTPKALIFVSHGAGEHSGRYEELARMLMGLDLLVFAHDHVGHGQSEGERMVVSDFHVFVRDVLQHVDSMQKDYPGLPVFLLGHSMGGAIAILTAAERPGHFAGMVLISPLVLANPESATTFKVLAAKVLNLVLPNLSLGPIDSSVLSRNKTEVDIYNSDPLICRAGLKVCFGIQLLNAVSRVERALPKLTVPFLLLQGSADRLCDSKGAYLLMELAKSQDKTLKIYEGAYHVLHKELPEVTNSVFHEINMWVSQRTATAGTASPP

T2: hFAAH (Homo sapiens, UniProt O00519)
T2 construct: expressed in transfected cells; host or cells: COS-7
T2 sequence (O00519 1-579): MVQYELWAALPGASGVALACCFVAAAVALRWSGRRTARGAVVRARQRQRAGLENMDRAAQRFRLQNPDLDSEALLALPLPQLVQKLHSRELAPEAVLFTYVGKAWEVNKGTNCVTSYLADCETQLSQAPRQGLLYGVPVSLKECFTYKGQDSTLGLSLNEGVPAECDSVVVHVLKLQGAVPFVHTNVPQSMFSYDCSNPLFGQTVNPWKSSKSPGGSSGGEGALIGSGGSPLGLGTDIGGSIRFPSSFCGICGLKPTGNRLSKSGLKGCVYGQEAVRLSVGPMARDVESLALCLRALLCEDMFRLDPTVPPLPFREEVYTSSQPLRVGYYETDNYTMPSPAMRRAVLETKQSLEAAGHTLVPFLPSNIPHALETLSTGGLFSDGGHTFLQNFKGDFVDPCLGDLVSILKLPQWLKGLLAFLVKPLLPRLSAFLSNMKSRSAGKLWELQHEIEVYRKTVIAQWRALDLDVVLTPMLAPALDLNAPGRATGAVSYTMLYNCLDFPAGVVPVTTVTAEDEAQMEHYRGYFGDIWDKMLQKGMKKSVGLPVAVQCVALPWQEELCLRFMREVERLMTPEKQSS

T3: hABHD12 (Homo sapiens, UniProt Q8N2K0)
T3 construct: expressed in transfected cells; host or cells: HEK293
T3 sequence (Q8N2K0 1-398): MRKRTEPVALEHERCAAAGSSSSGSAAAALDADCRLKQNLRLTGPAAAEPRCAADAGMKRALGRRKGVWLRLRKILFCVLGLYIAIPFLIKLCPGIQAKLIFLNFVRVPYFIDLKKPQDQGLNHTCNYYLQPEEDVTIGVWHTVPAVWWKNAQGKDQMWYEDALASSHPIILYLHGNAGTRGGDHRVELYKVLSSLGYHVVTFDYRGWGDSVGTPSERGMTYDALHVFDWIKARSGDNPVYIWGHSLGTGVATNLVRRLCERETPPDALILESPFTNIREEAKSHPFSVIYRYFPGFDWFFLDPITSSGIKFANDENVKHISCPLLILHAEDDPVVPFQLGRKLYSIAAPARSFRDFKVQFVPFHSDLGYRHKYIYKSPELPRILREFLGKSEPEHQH

T4: hABHD6 (Homo sapiens, UniProt Q9BV23)
T4 construct: expressed in transfected cells; host or cells: HEK293
T4 sequence (Q9BV23 1-337): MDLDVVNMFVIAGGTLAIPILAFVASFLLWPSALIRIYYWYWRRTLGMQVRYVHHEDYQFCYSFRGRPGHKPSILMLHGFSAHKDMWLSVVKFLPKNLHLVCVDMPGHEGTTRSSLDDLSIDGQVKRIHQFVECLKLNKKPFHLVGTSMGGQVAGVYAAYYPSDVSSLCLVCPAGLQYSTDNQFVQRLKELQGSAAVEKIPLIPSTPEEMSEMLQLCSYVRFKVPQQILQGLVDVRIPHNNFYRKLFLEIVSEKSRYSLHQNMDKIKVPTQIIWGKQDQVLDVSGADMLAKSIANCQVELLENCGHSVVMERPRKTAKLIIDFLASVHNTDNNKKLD

B1: hBAT5 (Homo sapiens) (protein)
chain: MAKLLSCVLGPRLYKIYRERDSERAPASVPETPTAVTAPHSSSWDTYYQPRALEKHADSILALASVFWSISYYSSPFAFFYLYRKGYLSLSKVVPFSHYAGTLLLLLAGVACLRGIGRWTNPQYRQFITILEATHRNQSSENKRQLANYNFDFRSWPVDFHWEEPSSRKESRGGPSRRGVALLRPEPLHRGTADTLLNRVKKLPCQITSYLVAHTLGRRMLYPGSVYLLQKALMPVLLQGQARLVEECNGRRAKLLACDGNEIDTMFVDRRGTAEPQGQKLVICCEGNAGFYEVGCVSTPLEAGYSVLGWNHPGFAGSTGVPFPQNEANAMDVVVQFAIHRLGFQPQDIIIYAWSIGGFTATWAAMSYPDVSAMILDASFDDLVPLALKVMPDSWRGLVTRTVRQHLNLNNAEQLCRYQGPVLLIRRTKDEIITTTVPEDIMSNRGNDLLLKLLQHRYPRVMAEEGLRVVRQWLEASSQLEEASIYSRWEVEEDWCLSVLRSYQAEHGPDFPWSVGEDMSADGRRQLALFLARKHLHNFEATHCTPLPAQNFQMPWHL

How the values were obtained:
[1] = biological target: T1, hMAGL; assay: Hydrolase activity assay, hMAGL-HEK lysates; format: biochemical
[2] = biological target: T2, hFAAH; assay: FAAH activity assay, hFAAH-COS7 membranes (3H-anandamide); format: biochemical
[3] = biological target: T3, hABHD12; assay: Hydrolase activity assay, hABHD12-HEK lysates; format: biochemical
[4] = biological target: T4, hABHD6; assay: Hydrolase activity assay, hABHD6-HEK lysates; format: biochemical; conditions: IC50, hABHD6-HEK lysates
[5] = substrate: CCCCC/C=C\C/C=C\CCCCCCCCOCC(O)CO; assay: cells, lysate or membranes named; conditions: other: substrate of hBAT5, time-point 90 min, n=3
Description: HEK293 cells were transiently transfected with the cDNA encoding hBAT5, as detailed in the Methods section. After 48 h, cells were harvested and lysates prepared for hydrolase activity measurements using a sensitive fluorescent glycerol assay. […] Glycerol production was determined at time-point 60 min.
After 48 h, cells were harvested and lysates prepared for hydrolase activity measurements. Cellular lysates (0.3 µg/well) were incubated together with the indicated concentrations of 1-LG in assay mixes containing (+ BSA) or not (– BSA) 0.5% (w/v) BSA (A) or with 15d-PGJ2-G in assay mix containing BSA (B). […] As crude cellular lysates were used, total protein concentration was used instead of true enzyme concentration. […] Values are mean ± SEM from three independent experiments.
Glycerol liberated from the hydrolysis of glycerolipid substrates was determined kinetically using a fluorometric assay, essentially as previously described [10]. Briefly, glycerol production was coupled via a three-step enzymatic cascade to hydrogen peroxide (H2O2) dependent generation of resorufin whose fluorescence (λex 530; λem 590 nm) was kinetically monitored using a Tecan Infinite M200 plate reader (Tecan Group Ltd., Männedorf, Switzerland). The assays routinely contained 0.5% (w/v) BSA (essentially fatty acid free) as a carrier for lipophilic compounds. […] The twelve MAG substrates were tested also in assays without BSA. In addition, four commercially available PG-Gs were included. To monitor assay performance, assay blanks without enzyme, cellular background (HEK293/Mock cell lysates) as well as a glycerol standard were included for each tested substrate. Fluorescence of the assay blank was subtracted before calculation of the final results.

| Molecule | remaining activity at 10 µM [1] [%] | sensitivity of hMAGL (in words) [1] | remaining activity at 10 µM [2] [%] | sensitivity of hFAAH (in words) [2] | remaining activity at 10 µM [3] [%] | sensitivity of hABHD12 (in words) [3] | IC50 [4] [nM] | Km ([5]; with 0.5% BSA) | Km ([5]; without BSA) [µM] |
| --- | --- | --- | --- | --- | --- | --- | --- | --- | --- |
| CCC(C)C(O)C(C)C(=O)C(C)C=C(C)CC(C)C1OC(=O)C1C (stereo not drawn) [Ebelactone A, ebelactone A] | 90.8 | resistant | 87.3 | resistant | 100 | resistant | 870 | – | – |
| B1 | – | – | – | – | – | – | – | 137.8 ± 30.6 µM and 140 µM | 6.9 ± 1.7 |
